Test results as given in ChEMBL document CHEMBL1124810, “Synthesis and anti-HIV evaluation of 2',3'-dideoxyribo-5-chloropyrimidine analogues: reduced toxicity of 5-chlorinated 2',3'-dideoxynucleosides” (1990).
pEC50: −log10 of the molar value.

Legend:
Format in all cases: functional
MT4 [1] = assay: Selectivity index of CD50 to ED50 of MT-4 cells
[2] = test system: Human immunodeficiency virus 1; assay: Effective dose achieving 50% protection of MT-4 cells against the cytopathic effect of HIV; conditions: Human immunodeficiency virus 1, MT4; read-out: ED50 (the source's name)
MT4 [3] = assay: Cytotoxic dose required to reduce the viability of normal uninfected MT-4 cells by 50%; conditions: Homo sapiens, read-out: CD50 (the source's name)

pEC50 [2]	Compound	Selectivity index (MT4 [1])	CC50 (MT4 [3])
5.12	[N-]=[N+]=N[C@H]1C[C@H](n2ccc(N)nc2=O)O[C@@H]1CO	21	160 µM
6.89	Nc1ccn([C@H]2C=C[C@@H](CO)O2)c(=O)n1	61	7.9 µM
4.66	Nc1nc(=O)n([C@H]2C=C[C@@H](CO)O2)cc1Cl	8.4	185 µM
< 4.70	O=c1[nH]c(=O)n([C@H]2C=C[C@@H](CO)O2)cc1Cl	<2.2	44 µM
7.22	O=c1ccn(C2C[C@@H](F)[C@@H](CO)O2)c(=O)[nH]1 (some centres not stated)	18	1.1 µM
3.68	O=c1ccn(C2CCC(CO)O2)c(=O)[nH]1 (configuration not stated)	>3	> 625 µM
4.59	Nc1nc(=O)n(C2C[C@@H](F)[C@@H](CO)O2)cc1Cl (some centres not stated)	>38	> 1000 µM
4.80	Nc1ccn(C2C[C@@H](F)[C@@H](CO)O2)c(=O)n1 (some centres not stated)	1.6	26 µM
4.09	O=c1[nH]c(=O)n(C2CCC(CO)O2)cc1Cl (configuration not stated)	>6	> 500 µM
6.14	[N-]=[N+]=N[C@@H]1CC(n2cc(Cl)c(=O)[nH]c2=O)O[C@@H]1CO (some centres not stated)	296	213 µM
3.32	Cc1cn(/C=C/C(O)C(O)CO)c(=O)[nH]c1=O (configuration not stated)	>1	> 500 µM
< 3.30	O=c1ccn(/C=C/C(O)C(O)CO)c(=O)[nH]1 (configuration not stated)		> 500 µM
5.05	[N-]=[N+]=N[C@@H]1CC(n2cc(Cl)c(N)nc2=O)O[C@@H]1CO (some centres not stated)	97	877 µM
< 3.30	Nc1nc(=O)n(C2CCC(CO)O2)cc1Cl (configuration not stated)		> 500 µM
< 4.70	O=c1ccn([C@H]2C=C[C@@H](CO)O2)c(=O)[nH]1	<2	39 µM
6.37	[N-]=[N+]=N[C@H]1C[C@H](n2ccc(=O)[nH]c2=O)O[C@@H]1CO [NAVURIDINE]	90	39 µM
6.42	O=c1[nH]c(=O)n([C@H]2C[C@H](F)[C@@H](CO)O2)cc1Cl [RALURIDINE]	1408	
7.30	Cc1cn([C@H]2C=C[C@@H](CO)O2)c(=O)[nH]c1=O [STAVUDINE]	380	19 µM
6.52	Nc1ccn([C@H]2CC[C@@H](CO)O2)c(=O)n1 [ZALCITABINE]	120	40 µM

Compound	pEC50 [2]	Selectivity index (MT4 [1])	CC50 (MT4 [3])
Cc1cn([C@H]2C[C@H](N=[N+]=[N-])[C@@H](CO)O2)c(=O)[nH]c1=O [ZIDOVUDINE]	8.52	1603	4.81 µM
